Key:
[1] = target: hCOL3 (Homo sapiens, UniProt P45452); experiment: Ki for MMP inhibition, hCOL3; assay type: biochemical
From the text: (§1) The present invention is further directed to methods of inhibiting metalloproteinase activity, for example in mammalian tissue, by administering metabolites of prinomastat, such as a compound of the formula 11 or 22, or a pharmaceutically acceptable prodrug, salt or solvate thereof. The activity of the inventive compounds as inhibitors of metalloproteinase activity, such as the activity of MMPs (including stromelysins, collagenases, gelatinases, and/or matrilysin) and/or TNF-[…] convertase, may be measured by any of the methods available to those skilled in the art, including in vivo and/or in vitro assays. Examples of suitable assays fro activity measurements include those described in Anal. Biochem., 147, 437 (1995), Anal. Biochem., 180, 110 (1989), FEBS, 96, 263 (1992) and European Patent Application No. 0 606 046.

[2] = target: T1, hGELA (Homo sapiens, UniProt P08253); experiment: Ki for MMP inhibition, hGELA; assay type: biochemical
T1 sequence (P08253 110-660): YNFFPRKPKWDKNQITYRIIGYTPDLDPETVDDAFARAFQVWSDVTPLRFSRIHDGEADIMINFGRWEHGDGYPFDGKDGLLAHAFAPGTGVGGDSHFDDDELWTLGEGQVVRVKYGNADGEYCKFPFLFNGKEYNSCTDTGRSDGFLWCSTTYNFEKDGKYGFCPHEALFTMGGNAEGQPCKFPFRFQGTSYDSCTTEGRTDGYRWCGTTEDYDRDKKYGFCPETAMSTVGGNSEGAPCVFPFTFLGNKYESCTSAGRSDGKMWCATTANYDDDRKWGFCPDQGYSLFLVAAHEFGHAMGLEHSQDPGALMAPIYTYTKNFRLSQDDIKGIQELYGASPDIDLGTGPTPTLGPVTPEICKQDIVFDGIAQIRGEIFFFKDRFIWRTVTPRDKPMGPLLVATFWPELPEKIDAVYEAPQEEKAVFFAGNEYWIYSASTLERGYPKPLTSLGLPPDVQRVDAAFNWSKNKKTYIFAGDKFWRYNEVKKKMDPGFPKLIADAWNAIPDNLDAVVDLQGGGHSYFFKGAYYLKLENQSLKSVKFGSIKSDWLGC
From the text: as §1

[3] = target: T2, hCOL1 (Homo sapiens, UniProt P03956); experiment: Ki for MMP inhibition, hCOL1; assay type: biochemical
T2 sequence (P03956 100-469): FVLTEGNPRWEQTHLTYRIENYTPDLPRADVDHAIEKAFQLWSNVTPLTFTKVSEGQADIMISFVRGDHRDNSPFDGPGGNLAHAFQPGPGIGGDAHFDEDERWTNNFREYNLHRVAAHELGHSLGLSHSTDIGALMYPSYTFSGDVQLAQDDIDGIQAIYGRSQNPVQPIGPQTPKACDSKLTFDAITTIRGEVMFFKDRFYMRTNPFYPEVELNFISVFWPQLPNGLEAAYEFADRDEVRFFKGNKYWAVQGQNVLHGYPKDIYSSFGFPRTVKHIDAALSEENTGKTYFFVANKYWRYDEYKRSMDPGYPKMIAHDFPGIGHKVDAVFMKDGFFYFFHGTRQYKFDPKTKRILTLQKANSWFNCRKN
From the text: as §1

[4] = target: T3, hMATR (Homo sapiens, UniProt P09237); experiment: Ki for MMP inhibition, hMATR; assay type: biochemical
T3 sequence (P09237 95-267): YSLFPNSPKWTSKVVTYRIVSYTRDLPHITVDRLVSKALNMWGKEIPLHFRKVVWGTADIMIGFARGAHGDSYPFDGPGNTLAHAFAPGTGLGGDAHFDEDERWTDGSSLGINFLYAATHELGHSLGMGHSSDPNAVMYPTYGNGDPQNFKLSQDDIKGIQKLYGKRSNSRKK
From the text: as §1

[5] = target: hSLN (Homo sapiens, UniProt P08254); experiment: Ki for MMP inhibition, hSLN; assay type: biochemical
Sequence of hSLN (P08254 100-477): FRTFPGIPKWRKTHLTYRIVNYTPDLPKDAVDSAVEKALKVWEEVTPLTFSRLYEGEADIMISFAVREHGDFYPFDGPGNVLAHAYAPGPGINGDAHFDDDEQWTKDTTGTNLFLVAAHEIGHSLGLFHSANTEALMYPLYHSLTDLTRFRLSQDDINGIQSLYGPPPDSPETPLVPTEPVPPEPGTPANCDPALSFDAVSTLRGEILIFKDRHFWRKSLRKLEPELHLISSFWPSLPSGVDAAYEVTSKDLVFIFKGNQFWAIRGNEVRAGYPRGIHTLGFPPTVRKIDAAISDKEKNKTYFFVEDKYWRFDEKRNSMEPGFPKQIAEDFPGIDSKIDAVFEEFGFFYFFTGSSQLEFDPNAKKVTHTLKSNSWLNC
From the text: as §1

[6] = Metabolic composition of human plasma after single oral dose of prinomastat (LC-MS/MS); assay type: in vivo; conditions: single 100 mg oral dose of prinomastat
Procedure: Five healthy male volunteers received a 100 mg oral dose of prinomastat tablets in a phase I, double-blind, ascending single dose study. Blood samples were drawn at pre-selected time points, and the plasma was separated by centrifugation and stored at −20° C.
The human plasma samples at 1.5, 4, 8 and 12 hours pooled from five male volunteers were selected for the analysis of metabolites by liquid chromatography tandem mass spectroscopy (LC-MS/MS). Samples were treated with three volumes of an AcN:MeOH mixture (2:1) to precipitate plasma proteins. Following centrifugation, protein pellets were separated and washed twice with two volumes of the same AcN:MeOH mixture. The combined supernatant was evaporated to dryness under vacuum using a SpeedVac™ (Savant Instrument, Holbrook, N.Y.), and the dried residue was reconstituted in 0.1% formic acid-acetonitrile (90:10), and analyzed by LC-MS/MS.
Two LC-MS/MS systems were used to analyze the plasma samples. […]
The relative peak heights of prinomastat and its metabolites in the LC-MS reconstructed ion chromatograms (RIC) were used to estimate the relative abundance of each component, which was expressed as percent of total prinomastat related compounds. […]
Human plasma pooled from five male volunteers was analyzed for metabolites at 1.5 hr, 4, 8 and 12 hours. […]

Row | Ki [1] [nM] | Ki [2] [nM] | Ki [3] [nM] | Ki [4] [nM] | Ki [5] [nM] | share of the total drug-related substance in human plasma ([6]; later time points) [%] | relative abundance among circulating drug-related compounds in human plasma ([6]; early time points) | Compound
1 | 4 | 6.6 | 396 | 1140 | 5.1 | ≤ 50 | – | CC1(C)SCCN(S(=O)(=O)c2ccc(Oc3cc[n+]([O-])cc3)cc2)[C@H]1C(=O)NO [M6, (3S)-N-hydroxy-4-(4-((1-oxy-pyrid-4-yl)oxy)benzenesulfonyl)-2,2-dimethyl-tetrahydro-2H-1,4-thiazine-3-carboxamide]
2 | – | – | – | – | – | – | major circulating compound | CC1(C)SCCN(S(=O)(=O)c2ccc(Oc3ccncc3)cc2)[C@H]1C(=O)NO [parent drug, (3S)-N-hydroxy-4-(4-(pyrid-4-yloxy)benzenesulfonyl)-2,2-dimethyl-tetrahydro-2H-1,4-thiazine-3-carboxamide, reference compound]

— patent US7022846B2, “Metabolites of prinomastat and their synthesis” (Agouron Pharmaceuticals, Inc., priority 2002, dated 2006)
